Data from US11306079B2, “3-(5-amino-pyrazin-2-yl)-benzenesulfonamide derivatives and related compounds as PI3K-gamma kinase inhibitors” (Incyte Corporation, priority 2017, dated 2022).
Where a name gives a salt, the structure may show the parent alone.

What was measured:
[1] = target: PI3Kγ (p110γ) Recombinant Human Protein (Homo sapiens (Human), UniProt P48736); test: PI3K-γ Scintillation Proximity Assay; assay type: biochemical; conditions: 20 μM PIP2, 2 μM ATP, 13 nM PI3Kγ, 120 min, room temperature
Sequence of PI3Kγ (p110γ) Recombinant Human Protein (P48736 whole entry): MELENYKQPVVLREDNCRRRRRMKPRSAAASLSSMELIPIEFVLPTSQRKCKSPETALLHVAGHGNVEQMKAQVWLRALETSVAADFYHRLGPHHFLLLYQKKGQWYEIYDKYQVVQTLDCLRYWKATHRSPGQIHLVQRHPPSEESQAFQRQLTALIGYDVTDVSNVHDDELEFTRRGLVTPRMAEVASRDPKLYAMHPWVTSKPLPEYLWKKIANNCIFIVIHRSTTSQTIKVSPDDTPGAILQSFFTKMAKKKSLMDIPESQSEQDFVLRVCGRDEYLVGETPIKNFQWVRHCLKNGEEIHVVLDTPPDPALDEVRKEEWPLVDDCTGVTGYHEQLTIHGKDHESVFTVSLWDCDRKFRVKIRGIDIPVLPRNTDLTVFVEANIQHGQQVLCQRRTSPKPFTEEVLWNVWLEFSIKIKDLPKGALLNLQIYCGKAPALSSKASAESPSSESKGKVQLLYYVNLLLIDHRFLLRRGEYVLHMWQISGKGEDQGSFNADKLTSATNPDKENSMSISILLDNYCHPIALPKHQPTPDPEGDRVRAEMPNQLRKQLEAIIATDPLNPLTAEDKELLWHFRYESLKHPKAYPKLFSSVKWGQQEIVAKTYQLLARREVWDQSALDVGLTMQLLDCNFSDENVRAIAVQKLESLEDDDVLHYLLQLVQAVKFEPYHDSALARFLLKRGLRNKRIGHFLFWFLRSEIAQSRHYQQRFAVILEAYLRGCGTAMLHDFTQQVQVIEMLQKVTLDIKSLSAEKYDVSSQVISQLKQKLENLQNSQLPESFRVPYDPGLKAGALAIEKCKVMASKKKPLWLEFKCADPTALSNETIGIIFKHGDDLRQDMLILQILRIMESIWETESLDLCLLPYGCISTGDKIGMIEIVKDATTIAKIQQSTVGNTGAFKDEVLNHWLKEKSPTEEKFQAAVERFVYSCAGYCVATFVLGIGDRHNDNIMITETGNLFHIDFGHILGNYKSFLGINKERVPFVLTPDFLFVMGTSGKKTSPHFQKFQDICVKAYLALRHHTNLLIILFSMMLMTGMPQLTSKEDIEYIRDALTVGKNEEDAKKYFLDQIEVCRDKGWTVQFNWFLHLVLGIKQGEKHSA
Excerpt: Example B. PI3K-γ Scintillation Proximity Assay
(§1) [γ-^33P]ATP (10 mCi/mL) and Wheat Germ Agglutinin (WGA) YSi SPA Scintillation Beads was purchased from Perkin-Elmer (Waltham, Mass.). Lipid kinase substrate, D-myo-Phosphatidylinositol 4,5-bisphosphate (PtdIns(4,5)P2)D (+)-sn-1,2-di-O-octanoylglyceryl, 3-O-phospho linked (PIP2), CAS 204858-53-7, was purchased from Echelon Biosciences (Salt Lake City, Utah). PI3Kγ (p110γ) Recombinant Human Protein was purchased from Life technology (Grand island, NY), ATP, MgCl2, DTT, EDTA, MOPS and CHAPS were purchased from Sigma-Aldrich (St. Louis, Mo.).
(§2) The kinase reaction was conducted in polystyrene 384-well Greiner Bio-one white plate from Thermo Fisher Scientific in a final volume of 25 μL. Inhibitors were first diluted serially in DMSO and added to the plate wells before the addition of other reaction components. The final concentration of DMSO in the assay was 2%. The PI3Kγ assay was carried out at room temperature in 20 mM MOPS, pH 6.7, 10 mM MgCl2, 5 mM DTT and CHAPS 0.03%. Reactions were initiated by the addition of ATP, the final reaction mixture consisted of 20 μM PIP2, 2 μM ATP, 0.5 μCi [γ-^33P] ATP, 13 nM PI3Kγ. Reactions were incubated for 120 min and terminated by the addition of 40 μL SPA beads suspended in quench buffer: 163 mM potassium phosphate pH 7.8, 20% glycerol, 25 mM EDTA. The final concentration of SPA beads is 1.0 mg/mL. After the plate sealing, plates were shaken overnight at room temperature and centrifuged at 1500 rpm for 10 min, the radioactivity of the product was determined by scintillation counting on Topcount (Perkin-Elmer). IC50 determination was performed by fitting the curve of percent of the solvent control activity versus the log of the inhibitor concentration using the GraphPad Prism 6.0 software.

[2] = target: PI3Kδ (p110δ/p85α) Recombinant Human Protein (Homo sapiens (Human), UniProt O00329); test: PI3Kδ Scintillation Proximity Assay; assay type: biochemical; conditions: 20 μM PIP2, 2 μM ATP, 3.4 nM PI3Kδ, 120 min, room temperature
Sequence of PI3Kδ (p110δ/p85α) Recombinant Human Protein (O00329 whole entry): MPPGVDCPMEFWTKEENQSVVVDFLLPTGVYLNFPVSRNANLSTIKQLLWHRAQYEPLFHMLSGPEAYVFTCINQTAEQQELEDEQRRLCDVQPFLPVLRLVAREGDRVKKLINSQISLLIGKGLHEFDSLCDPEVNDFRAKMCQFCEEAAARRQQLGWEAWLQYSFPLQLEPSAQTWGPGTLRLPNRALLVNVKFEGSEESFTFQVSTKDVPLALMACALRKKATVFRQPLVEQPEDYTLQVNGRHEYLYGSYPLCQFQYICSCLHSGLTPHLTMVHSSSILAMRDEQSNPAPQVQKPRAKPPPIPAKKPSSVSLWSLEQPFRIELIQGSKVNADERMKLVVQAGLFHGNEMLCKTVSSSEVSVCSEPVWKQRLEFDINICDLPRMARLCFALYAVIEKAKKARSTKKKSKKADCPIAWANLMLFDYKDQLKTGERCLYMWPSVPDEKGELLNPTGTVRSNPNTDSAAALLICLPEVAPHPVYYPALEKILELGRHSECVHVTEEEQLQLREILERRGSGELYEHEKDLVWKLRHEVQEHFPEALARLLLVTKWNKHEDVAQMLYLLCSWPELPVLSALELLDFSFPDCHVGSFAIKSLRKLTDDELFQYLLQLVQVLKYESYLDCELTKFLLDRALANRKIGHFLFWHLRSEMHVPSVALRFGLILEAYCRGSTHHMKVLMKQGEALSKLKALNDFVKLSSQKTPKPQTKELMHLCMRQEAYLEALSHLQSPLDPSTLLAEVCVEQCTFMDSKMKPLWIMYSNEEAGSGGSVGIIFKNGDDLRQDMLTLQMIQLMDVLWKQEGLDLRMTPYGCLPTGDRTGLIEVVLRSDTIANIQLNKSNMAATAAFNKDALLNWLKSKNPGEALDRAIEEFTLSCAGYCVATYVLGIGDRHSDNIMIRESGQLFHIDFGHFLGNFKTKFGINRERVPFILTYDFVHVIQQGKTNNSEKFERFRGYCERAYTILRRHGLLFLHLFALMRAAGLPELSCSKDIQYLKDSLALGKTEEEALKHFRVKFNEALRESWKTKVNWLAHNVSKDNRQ
Sequence of PI3Kδ (p110δ/p85α) Recombinant Human Protein (P27986 whole entry partner): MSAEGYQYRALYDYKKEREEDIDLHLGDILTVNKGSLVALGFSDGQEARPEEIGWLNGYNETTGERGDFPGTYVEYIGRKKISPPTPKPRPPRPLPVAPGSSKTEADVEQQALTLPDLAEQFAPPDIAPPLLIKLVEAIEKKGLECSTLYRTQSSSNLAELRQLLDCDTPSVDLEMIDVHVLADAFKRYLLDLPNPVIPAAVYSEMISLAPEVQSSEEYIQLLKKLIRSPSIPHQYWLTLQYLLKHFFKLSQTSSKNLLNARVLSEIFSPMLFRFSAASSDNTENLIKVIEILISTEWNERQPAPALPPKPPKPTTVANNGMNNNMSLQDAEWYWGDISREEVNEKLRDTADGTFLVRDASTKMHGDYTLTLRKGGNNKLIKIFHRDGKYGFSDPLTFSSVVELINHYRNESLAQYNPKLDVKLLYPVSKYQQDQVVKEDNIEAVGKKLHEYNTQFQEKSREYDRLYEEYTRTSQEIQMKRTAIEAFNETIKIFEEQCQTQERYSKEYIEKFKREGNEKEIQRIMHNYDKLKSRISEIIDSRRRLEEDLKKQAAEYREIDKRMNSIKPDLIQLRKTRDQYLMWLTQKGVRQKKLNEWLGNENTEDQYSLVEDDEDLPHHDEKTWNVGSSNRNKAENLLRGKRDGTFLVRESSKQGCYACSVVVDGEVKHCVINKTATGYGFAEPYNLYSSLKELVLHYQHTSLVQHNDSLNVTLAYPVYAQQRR
Excerpt: Example C. PI3Kδ Scintillation Proximity Assay
as §1, with “PI3Kδ (p110δ/p85α)” for “PI3Kγ (p110γ)”, “Eurofins (St Charles, Mo.).” for “Life technology (Grand island, NY),”
as §2, with “PI3Kδ” for “PI3Kγ”, “3.4” for “13”, “PI3Kδ.” for “PI3Kγ.”

[3] = test system: Phosphorylated Ribosomal Protein S6 (RPS6) in THP-1 cells; test: THP-1 RPS6 ELISA Assay; assay type: cell-based; conditions: Homo sapiens; serum starved THP-1 cells, 2 hours with compound, 10 nM MCP-1 for 15 minutes, Phospho-RPS6 ELISA; read-out: PI3Kγ_THP1_RPS6_ELISA IC50
Procedure: Example A. THP-1 RPS6 ELISA Assay
To measure the Phosphorylated Ribosomal Protein S6 (RPS6) in cell lysates, THP-1 cells (Human Acute Monocytic Leukemia) are purchased from ATCC (Manassas, Va.) and maintained in RPMI with 10% FBS (Gibco/Life Technologies, Carlsbad, Calif.). For the assay, THP-1 cells are serum starved overnight in RPMI, then plated in RPMI (2×10^5 cells/well in 90 μL) into 96-well flat-bottom tissue culture treated plates (Corning, Corning, N.Y.), in the presence or absence of a concentration range of test compounds. Covered plates are incubated for 2 hours at 37° C., 5% CO2 then treated with or without 10 nM MCP-1 (MYBioSource, San Diego, Calif.) for 15 minutes at 37° C., 5% CO2. Plates are centrifuged at 1600 RPM and supernatants are removed. Cells are lysed in Lysis Buffer (Cell Signaling, Danvers, Mass.) with Protease Inhibitor (Calbiochem/EMD, Germany), PMSF (Sigma, St Louis Mo.), HALTS (Thermo Fisher, Rockford, Ill.) for 30 min on wet ice. Cell lysates are frozen at −80° C. before testing. The lysates are tested in the Human/Mouse/Rat Phospho-RPS6 ELISA (R&D Systems, Inc. Minn, Minn.). The plate is measured using a microplate reader (SpectraMax M5—Molecular Devices, LLC Sunnyvale, Calif.) set to 450 nm with a wavelength correction of 540. IC50 determination is performed by fitting the curve of inhibitor percent inhibition versus the log of the inhibitor concentration using the GraphPad Prism 5.0 software.

| Compound | IC50 [1] | IC50 [2] | IC50 [3] |
| --- | --- | --- | --- |
| Cc1ccc(S(=O)(=O)NC23COC(CO)(C2)C3)cc1-c1cnc(N)c(-c2cn(C)nc2C)n1 [Example 14, 3-(5-Amino-6-(1,3-dimethyl-1H-pyrazol-4-yl)pyrazin-2-yl)-N-(1-(hydroxymethyl)-2-oxabicyclo[2.1.1]hexan-4-yl)-4-methylbenzenesulfonamide trifluoroacetate salt] | ≤ 100 nM | ≤ 500 nM | ≤ 500 nM |
| Cc1ccc(S(=O)(=O)NC23CC(CO)(C2)C3)cc1-c1cnc(N)c(-c2cn(C)nc2C)n1 [Example 15, 3-(5-amino-6-(1,3-dimethyl-1H-pyrazol-4-yl)pyrazin-2-yl)-N-(3-(hydroxymethyl)bicyclo[1.1.1]pentan-1-yl)-4-methylbenzenesulfonamide trifluoroacetate salt] | ≤ 100 nM | ≤ 500 nM | ≤ 500 nM |
| Cc1ccc(S(=O)(=O)NC23CCC(O)(CC2)C3)cc1-c1cnc(N)c(-c2cccnc2)n1 [Example 16, 3-(5-Amino-6-(pyridin-3-yl)pyrazin-2-yl)-N-(4-hydroxybicyclo[2.2.1]heptan-1-yl)-4-methylbenzenesulfonamide Trifluoroacetate Salt] | ≤ 100 nM | ≤ 100 nM | ≤ 500 nM |
| Cc1ccc(S(=O)(=O)NC23CCC(O)(CC2)C3)cc1-c1cnc(N)c(-c2ccncc2)n1 [Example 17, 3-(5-Amino-6-(pyridin-4-yl)pyrazin-2-yl)-N-(4-hydroxybicyclo[2.2.1]heptan-1-yl)-4-methylbenzenesulfonamide Trifluoroacetate Salt] | ≤ 100 nM | ≤ 500 nM | ≤ 500 nM |
| Cc1cc(-c2nc(-c3cc(S(=O)(=O)NC45CCC(CO)(CC4)OC5)ccc3C)cnc2N)ccn1 [Example 18, 3-(5-Amino-6-(2-methylpyridin-4-yl)pyrazin-2-yl)-N-(1-(hydroxymethyl)-2-oxabicyclo[2.2.2]octan-4-yl)-4-methylbenzenesulfonamide Trifluoroacetate Salt] | ≤ 100 nM | ≤ 500 nM | ≤ 500 nM |
| Cc1ccc(S(=O)(=O)NC23CCC(CO)(CC2)OC3)cc1-c1cnc(N)c(-c2ccnc(C#N)c2)n1 [Example 19, 3-(5-Amino-6-(2-cyanopyridin-4-yl)pyrazin-2-yl)-N-(1-(hydroxymethyl)-2-oxabicyclo[2.2.2]octan-4-yl)-4-methylbenzenesulfonamide trifluoroacetate salt] | ≤ 100 nM | ≤ 100 nM | ≤ 1000 nM |
| Cc1ccc(S(=O)(=O)NC23CCC(CO)(CC2)OC3)cc1-c1cnc(N)c(-c2ccncc2F)n1 [Example 20, 3-(5-Amino-6-(3-fluoropyridin-4-yl)pyrazin-2-yl)-N-(1-(hydroxymethyl)-2-oxabicyclo[2.2.2]octan-4-yl)-4-methylbenzenesulfonamide trifluoroacetate salt] | ≤ 100 nM | ≤ 500 nM | ≤ 500 nM |
| Cc1ccc(S(=O)(=O)NC23CCC(CO)(CC2)OC3)cc1-c1cnc(N)c(-c2ccnc(C(F)(F)F)c2)n1 [Example 21, 3-(5-Amino-6-(2-(trifluoromethyl)pyridin-4-yl)pyrazin-2-yl)-N-(1-(hydroxymethyl)-2-oxabicyclo[2.2.2]octan-4-yl)-4-methylbenzenesulfonamide trifluoroacetate salt] | ≤ 100 nM | ≤ 500 nM | ≤ 500 nM |
| Cc1ccc(S(=O)(=O)NC23CC(C#N)(C2)C3)cc1-c1cnc(N)c(-n2cncn2)n1 [Example 23, 3-(5-Amino-6-(1H-1,2,4-triazol-1-yl)pyrazin-2-yl)-N-(3-cyanobicyclo[1.1.1]pentan-1-yl)-4-methylbenzenesulfonamide Trifluoroacetate Salt] | ≤ 100 nM | ≤ 100 nM | ≤ 500 nM |
| Cc1ccc(S(=O)(=O)NC23CC(CO)(C2)C3)cc1-c1cnc(N)c(-n2cncn2)n1 [Example 24, 3-(5-Amino-6-(1H-1,2,4-triazol-1-yl)pyrazin-2-yl)-N-(3-(hydroxymethyl)bicyclo[1.1.1]pentan-1-yl)-4-methylbenzenesulfonamide trifluoroacetate salt] | ≤ 100 nM | ≤ 500 nM | ≤ 100 nM |
| Cc1ccc(S(=O)(=O)NC23CCC(CO)(C2)C3)cc1-c1cnc(N)c(-n2cncn2)n1 [Example 25, 3-(5-Amino-6-(1H-1,2,4-triazol-1-yl)pyrazin-2-yl)-N-(4-(hydroxymethyl)bicyclo[2.1.1]hexan-1-yl)-4-methylbenzenesulfonamide trifluoroacetate salt] | ≤ 100 nM | ≤ 100 nM | ≤ 100 nM |
| Cc1ccc(S(=O)(=O)NC23CCC(O)(CC2)C3)cc1-c1cnc(N)c(-n2cncn2)n1 [Example 26, 3-(5-Amino-6-(1H-1,2,4-triazol-1-yl)pyrazin-2-yl)-N-(4-hydroxybicyclo[2.2.1]heptan-1-yl)-4-methylbenzenesulfonamide trifluoroacetate salt] | ≤ 100 nM | ≤ 100 nM | ≤ 100 nM |
| Cc1ccc(S(=O)(=O)NC23COC(CO)(C2)C3)cc1-c1cnc(N)c(-n2cncn2)n1 [Example 27, 3-(5-Amino-6-(1H-1,2,4-triazol-1-yl)pyrazin-2-yl)-N-(1-(hydroxymethyl)-2-oxabicyclo[2.1.1]hexan-4-yl)-4-methylbenzenesulfonamide trifluoroacetate salt] | ≤ 100 nM | ≤ 500 nM | ≤ 500 nM |
| Cc1ccc(S(=O)(=O)NC23CCC(C#N)(C2)C3)cc1-c1cnc(N)c(-n2cncn2)n1 [Example 28, 3-(5-Amino-6-(1H-1,2,4-triazol-1-yl)pyrazin-2-yl)-N-(4-cyanobicyclo[2.1.1]hexan-1-yl)-4-methylbenzenesulfonamide trifluoroacetate salt] | ≤ 100 nM | ≤ 500 nM | ≤ 100 nM |
